The values below come from patent EP3820512B1, “IMMUNOMODULATING COMPOSITIONS COMPRISING OLIGOSACCHARIDE DERIVATIVES” (priority 2018, dated 2020).

Data set [1] concerns the target TLR4 (Homo sapiens, UniProt O00206). The data set is described as follows: TLR4 inhibitory and activating activity in THP-1 cells at low and high concentrations. It is filed as cell-based. More on the design: endogenous in cells; host or cells: THP-1 (human monocytic) cells. The following applies: for % inhibition over control TLR4 / % activation over control TLR4: THP-1 cells; for TLR2/4 antagonist activity: as shown in Table-1 (FIG. 1), TLR2 and TLR4.

Data set [2] deals with THP-1 (human monocytic) cells. The data set is described as follows: Cytokine response (IL-1β, TNF-α, IL-10) of THP-1 cells treated with compounds. The format is cell-based. The following applies: 100-200 µM. As to the method: When THP-1 (human monocytic) cells were treated with 100-200 µM of compounds 8, 14, 17, 23, 29, and 32, they produced an increased IL-1β and TNF-α response, decreased anti-inflammatory cytokine IL-10 (FIG. 4).

Data set [3] concerns hPBMC. The data set is described as follows: Cytotoxicity in hPBMC, MTT cell proliferation kit. It is filed as cell-based, human. To be noted: 0.1, 1.0, 10, 100 and 1000 µM, 24h. As for the experimental part: The cells were treated with compounds and incubated for 24h. Cell viability was assessed using MTT cell proliferation kit (Promega).
Data set [4] deals with HUVECs. The data set is described as follows: Cytotoxicity in HUVECs, MTT cell proliferation kit. The format is cell-based, human. To be noted: 100 µM, 24h. As for the experimental part: Selected TLR2/4 antagonist compounds 2, 6, 7, 8, 14, 17 and 32 were evaluated for cytotoxicity in HUVECs at 100 µM concentration. The cells were treated with compounds and incubated for 24h. Cell viability was assessed using MTT cell proliferation kit (Promega). All the compounds were not toxic to HUVECs (FIG. 15).
For orientation: Tetrazolium assays rely on reduction of a dye to a coloured formazan, in cell work by metabolically active cells.

Data set [5] has as its target T1, TLR2 (Homo sapiens, UniProt O60603).
T1 construct: endogenous in cells; host or cells: THP-1 monocyte cells stimulated with PMA
Kind of data set: TLR2 activity in PMA-stimulated THP-1 monocyte cells, ELISA of cell lysate. It is filed as cell-based. To be noted: THP-1 cells. As for the experimental part: THP-1 monocyte cells (1×10^5) were stimulated with 200nM of PMA for 48h and treated with different concentrations of test compounds. The TLR2 activity was measured after 24 h from the cell lysate using ELISA.
Background: An ELISA detects its analyte on a solid surface through an enzyme-linked reagent.

Data set [6] concerns VEGF induced tube formation in HUVECs. Kind of data set: Anti-angiogenic activity, Tube Formation kit, VEGF induced. It is filed as cell-based, human. The following applies: VEGF 100ng/mL. As to the method: Selected TLR2/4 antagonist compounds 2, 6, 7, 8, 14, 17 and 32 were evaluated for anti-angiogenic activity using the Tube Formation kit (Cat#3470-096-K). VEGF (100ng/mL) was used as positive control. These compounds have potential applications in diseases associated with pathological angiogenesis such as solid tumor, […], diabetic retinopathy as well as AMD.

Data set [7] deals with hyperoxia induced BPD in mouse pups. Kind of data set: Hyperoxia-exposed BPD mouse model (newborn pups). It is filed as in vivo. From the text: Neonatal mice and humans undergo similar stages of lung development but differ with respect to the duration of each stage and its temporal relationship to gestational age. The lungs of the mouse born at term are in the saccular stage and are surfactant sufficient; this can be considered somewhat akin to a human preterm neonate in the same stage of lung development that has been exposed to a full complement of antenatal steroids (which is known to enhance surfactant production). In terms of mimicking the human condition, the most successful hyperoxia models are those that limit exposure to hyperoxia to the saccular stage of pulmonary development. The mouse BPD model involves exposing newborn mice (postnatal day 1 or PN1) to 100% oxygen till PN4 followed by recovery in room air (RA) for another 10 days.
After the recovery period, their lungs were harvested and processed for quantitative PCR, western blotting, histopathology and ELISA.
After the recovery period, their lungs were harvested and processed for quantitative PCR, western blotting and histopathology and ELISA.
BPD is characterized by large simplified alveoli, inflammation, increased cell death, decreased cell proliferation, dysmorphic capillary configuration, and variable interstitial cellularity and/or fibroproliferation. […] This is determined by measuring the alveolar chord length, septal thickness and radial alveolar count (RAC). In BPD, the alveolar area increases which is characterized by increase in the diameter of the alveolar sacs, the septa become thickened (thus interfering in gaseous exchange) and the RAC, a parameter used to assess the complexity of terminal respiratory unit by pulmonologists, decreases as a result of arrested lung development.

Molecules are shown by their SMILES.

T1 sequence (O60603 21-784): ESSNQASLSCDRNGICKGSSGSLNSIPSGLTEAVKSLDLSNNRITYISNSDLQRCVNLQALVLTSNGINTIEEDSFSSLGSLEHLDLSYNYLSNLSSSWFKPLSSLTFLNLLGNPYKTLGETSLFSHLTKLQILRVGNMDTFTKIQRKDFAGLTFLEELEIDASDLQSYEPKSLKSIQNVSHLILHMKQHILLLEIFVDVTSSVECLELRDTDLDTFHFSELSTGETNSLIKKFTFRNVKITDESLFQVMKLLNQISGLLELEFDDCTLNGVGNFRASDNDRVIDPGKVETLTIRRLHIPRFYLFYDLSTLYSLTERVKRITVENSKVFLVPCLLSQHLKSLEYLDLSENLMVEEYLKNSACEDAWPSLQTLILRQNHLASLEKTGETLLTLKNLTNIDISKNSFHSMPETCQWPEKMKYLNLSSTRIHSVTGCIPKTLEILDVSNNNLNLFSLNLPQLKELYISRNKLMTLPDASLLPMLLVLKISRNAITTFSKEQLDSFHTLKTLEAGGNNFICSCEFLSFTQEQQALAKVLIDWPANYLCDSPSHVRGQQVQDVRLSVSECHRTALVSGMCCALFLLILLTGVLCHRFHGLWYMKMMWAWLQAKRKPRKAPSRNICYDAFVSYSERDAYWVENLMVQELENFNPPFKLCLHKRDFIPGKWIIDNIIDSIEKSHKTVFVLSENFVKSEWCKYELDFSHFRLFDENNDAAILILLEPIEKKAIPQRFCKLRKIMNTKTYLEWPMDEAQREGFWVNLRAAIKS
Chain of TLR4 (O00206 24-839): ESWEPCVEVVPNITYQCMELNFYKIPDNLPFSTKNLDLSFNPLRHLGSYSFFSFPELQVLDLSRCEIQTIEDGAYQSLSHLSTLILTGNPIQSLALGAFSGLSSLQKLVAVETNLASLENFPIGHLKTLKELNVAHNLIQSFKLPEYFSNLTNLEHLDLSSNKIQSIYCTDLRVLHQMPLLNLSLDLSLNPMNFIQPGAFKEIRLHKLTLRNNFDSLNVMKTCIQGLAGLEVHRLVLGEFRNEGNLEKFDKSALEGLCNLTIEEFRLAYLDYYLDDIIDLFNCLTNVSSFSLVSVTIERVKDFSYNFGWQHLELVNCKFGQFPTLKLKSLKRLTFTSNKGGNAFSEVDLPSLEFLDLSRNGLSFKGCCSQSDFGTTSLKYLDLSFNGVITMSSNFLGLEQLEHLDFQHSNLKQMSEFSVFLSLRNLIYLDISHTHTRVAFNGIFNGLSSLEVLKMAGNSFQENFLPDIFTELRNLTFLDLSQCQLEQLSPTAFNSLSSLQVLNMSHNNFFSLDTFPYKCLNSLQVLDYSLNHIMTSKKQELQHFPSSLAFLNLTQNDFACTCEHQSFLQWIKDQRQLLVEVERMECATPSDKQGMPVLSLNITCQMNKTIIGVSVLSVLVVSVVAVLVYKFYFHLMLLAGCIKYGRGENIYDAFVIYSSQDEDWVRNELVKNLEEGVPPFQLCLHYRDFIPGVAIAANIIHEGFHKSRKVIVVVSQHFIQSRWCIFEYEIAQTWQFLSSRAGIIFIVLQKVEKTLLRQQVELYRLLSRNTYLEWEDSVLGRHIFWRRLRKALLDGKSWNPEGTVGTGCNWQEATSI
Chain of TLR4 (Q9Y6Y9 17-160 partner limits assumed): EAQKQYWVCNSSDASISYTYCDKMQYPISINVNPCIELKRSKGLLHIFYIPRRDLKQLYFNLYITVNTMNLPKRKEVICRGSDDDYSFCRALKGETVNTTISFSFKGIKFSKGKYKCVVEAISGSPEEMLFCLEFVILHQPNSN

Consider `CC(=O)NC1[C@H](Oc2cccc3sc(NC(=O)C(C)(C)C)nc23)O[C@H](CO)[C@@H](O)[C@@H]1O` (single isomer, unassigned) [Compound 23], for which the “% inhibition over control TLR4” value in data set [1] (Concentration 1-10 µM) is reported as “+ (+ means that the % of inhibition or activation is in the range of 15-25%)”. In data set [1] (Concentration 75-100 µM), the “% inhibition over control TLR4” value is “+ (+ means that the % of inhibition or activation is in the range of 15-25%)”. In addition, in data set [2], the IL-1β response result is reported as “increased”, the TNF-α response entry was “increased” and the “anti-inflammatory cytokine IL-10” value is reported as “decreased”.

Take `CC(=O)NC1[C@H](Oc2ccc(N3CCN(C(C)=O)CC3)cc2)O[C@H](CO)[C@@H](O)[C@@H]1O` (single isomer, unassigned) [Compound 28]: the “% inhibition over control TLR4” value in data set [1] (Concentration 1-10 µM) was “+ (+ means that the % of inhibition or activation is in the range of 15-25%)”. In addition, the “% activation over control TLR4” value in data set [1] (Concentration 75-100 µM) is on record as “++ (++ means that the % of inhibition or activation is in the range of 25-75%)”.

On to `CC(=O)NC1[C@H](Oc2ccc(B(O)O)cc2)O[C@H](CO)[C@@H](O)[C@@H]1O` (single isomer, unassigned) [Compound 35, p-Boronic acid phenyl 2-acetamido-2-deoxy-β-D-glucopyranoside], for which, in data set [1] (Concentration 1-10 µM), the “% inhibition over control TLR4” value is “+++ (+++ means that the % of inhibition or activation is in the range of 75-95%)”. For the same compound, the “% activation over control TLR4” value in data set [1] (Concentration 75-100 µM) was “++ (++ means that the % of inhibition or activation is in the range of 25-75%)”. For the same compound, in data set [1] (summary in words), the TLR4 modulatory activity result is on record as “concentration dependent TLR4 modulatory activity” and the TLR2/4 antagonist activity entry is listed as “potent TLR2/4 antagonists”.

Turning to `CC(=O)N[C@@H]1[C@@H](OC(C)=O)[C@H](OC(C)=O)[C@@H](COC(C)=O)O[C@H]1NC(=O)c1ccc(O[C@@H]2O[C@H](CO)[C@@H](O)[C@H](O)[C@H]2NC(C)=O)cc1` [Compound 2], in data set [3], the “cytotoxicity in hPBMC (cell viability)” value is reported as “not toxic”. Moreover, the “cytotoxicity in HUVECs (cell viability)” value in data set [4] is on record as “not toxic”. The “% inhibition over control TLR2” value was “+ (+ means that the % of inhibition or activation is in the range of 15-25%)” in data set [5] (Concentration 1-10 µM) and “+++ (+++ means that the % of inhibition or activation is in the range of 75-95%)” in data set [5] (Concentration 75-100 µM). In addition, the “% inhibition over control TLR4” value in data set [1] (Concentration 1-10 µM) is “++ (++ means that the % of inhibition or activation is in the range of 25-75%)”; in data set [1] (Concentration 75-100 µM), “+++ (+++ means that the % of inhibition or activation is in the range of 75-95%)”. Also, in data set [1] (summary in words), the TLR2/4 antagonist activity entry is “potent TLR2/4 antagonists”. In addition, the “VEGF induced tube formation” value in data set [6] is “significantly decreased”.

On to `CC(=O)N[C@@H]1[C@@H](O)[C@H](O)[C@@H](CO)O[C@H]1NC(=O)c1ccc(O[C@@H]2O[C@H](CO)[C@@H](O)[C@H](O)[C@H]2NC(C)=O)cc1` [Compound 3], for which the entries for the “% inhibition over control TLR2” value in data set [5] (Concentration 1-10 µM) and in data set [5] (Concentration 75-100 µM) were “++ (++ means that the % of inhibition or activation is in the range of 25-75%)” and “+++ (+++ means that the % of inhibition or activation is in the range of 75-95%)”, respectively. The figures for the “% inhibition over control TLR4” value in data set [1] (Concentration 1-10 µM) and in data set [1] (Concentration 75-100 µM) were “++ (++ means that the % of inhibition or activation is in the range of 25-75%)” and “+++ (+++ means that the % of inhibition or activation is in the range of 75-95%)”, respectively. In data set [1] (summary in words), the TLR2/4 antagonist activity result is “potent TLR2/4 antagonists”. Further, the “TLR4 inhibition in vivo” value in data set [7] (neonatal pups with BPD) is listed as “inhibit”. Besides, the lung architecture entry in data set [7] (saline (IV) and nanosuspension (IN) formulation) is “restored”.

Regarding `CC(=O)N[C@H]1[C@H](Oc2ccc(C(=O)Nc3ccc(O[C@@H]4O[C@H](COC(C)=O)[C@@H](OC(C)=O)[C@H](OC(C)=O)[C@H]4NC(C)=O)cc3)cc2)O[C@H](CO)[C@@H](O)[C@@H]1O` [Compound 6], in data set [4], the “cytotoxicity in HUVECs (cell viability)” value is “not toxic”. Besides, the “% inhibition over control TLR4” value in data set [1] (Concentration 1-10 µM) was “++ (++ means that the % of inhibition or activation is in the range of 25-75%)”; in data set [1] (Concentration 75-100 µM), “+++ (+++ means that the % of inhibition or activation is in the range of 75-95%)”. Besides, in data set [1] (summary in words), the TLR2/4 antagonist activity entry is on record as “potent TLR2/4 antagonists”. In data set [6], the “VEGF induced tube formation” value is “significantly decreased”.

Take `CC(=O)N[C@H]1[C@H](Oc2ccc(NC(=O)c3ccc(O[C@@H]4O[C@H](CO)[C@@H](O)[C@H](O)[C@H]4NC(C)=O)cc3)cc2)O[C@H](CO)[C@@H](O)[C@@H]1O` [Compound 7]: the “cytotoxicity in hPBMC (cell viability)” value in data set [3] is “not toxic”. For the same compound, the “cytotoxicity in HUVECs (cell viability)” value in data set [4] is listed as “not toxic”. The results for the “% inhibition over control TLR2” value in data set [5] (Concentration 1-10 µM) and in data set [5] (Concentration 75-100 µM) were “++ (++ means that the % of inhibition or activation is in the range of 25-75%)” and “+++ (+++ means that the % of inhibition or activation is in the range of 75-95%)”, respectively. Moreover, the “% inhibition over control TLR4” value in data set [1] (Concentration 1-10 µM) and in data set [1] (Concentration 75-100 µM) was “+++ (+++ means that the % of inhibition or activation is in the range of 75-95%)” each time. For the same compound, in data set [1] (summary in words), the TLR2/4 antagonist activity entry is recorded as “potent TLR2/4 antagonists”. Besides, the “VEGF induced tube formation” value in data set [6] is on record as “significantly decreased”.

Take `CC(=O)N[C@H]1[C@H](Oc2ccc([N+](=O)[O-])cc2Cl)O[C@H](CO)[C@@H](O)[C@@H]1O` [Compound 11]: the “% inhibition over control TLR4” value in data set [1] (Concentration 1-10 µM) and in data set [1] (Concentration 75-100 µM) was “+ (+ means that the % of inhibition or activation is in the range of 15-25%)” each time.

Regarding `CC(=O)N[C@H]1[C@H](Oc2ccc(C#N)cc2)O[C@H](CO)[C@@H](O)[C@@H]1O` [Compound 14, p-Cyanophenyl 2-acetamido-2-deoxy-β-D-glucopyranoside], in data set [3], the “cytotoxicity in hPBMC (cell viability)” value is reported as “not toxic”. Further, the “cytotoxicity in HUVECs (cell viability)” value in data set [4] is recorded as “not toxic”. Also, the “% inhibition over control TLR4” value in data set [1] (Concentration 1 µM) was “+++ (+++ means that the % of inhibition or activation is in the range of 75-95%)”. In data set [1] (Concentration 100 µM), the “% inhibition over control TLR4” value is recorded as “+++ (+++ means that the % of inhibition or activation is in the range of 75-95%)”. Moreover, the TLR2/4 antagonist activity entry in data set [1] (summary in words) is “potent TLR2/4 antagonists”. The “VEGF induced tube formation” value in data set [6] is on record as “significantly decreased”. In addition, in data set [2], the IL-1β response entry is “increased”, the TNF-α response result was “increased” and the “anti-inflammatory cytokine IL-10” value is given as “decreased”.

Consider `CC(=O)N[C@H]1[C@H](Oc2ccc3c(C)cc(=O)oc3c2)O[C@H](COS(=O)(=O)O)[C@@H](O)[C@@H]1O` [Compound 30], for which, in data set [1] (Concentration 1-10 µM), the “% activation over control TLR4” value is given as “+ (+ means that the % of inhibition or activation is in the range of 15-25%)” and the “% inhibition over control TLR4” value is “+ (+ means that the % of inhibition or activation is in the range of 15-25%)”. The “% activation over control TLR4” value in data set [1] (Concentration 75-100 µM) is reported as “+ (+ means that the % of inhibition or activation is in the range of 15-25%)”.

As for `COc1ccc(O[C@@H]2O[C@H](CO)[C@@H](O)[C@H](O)[C@H]2NC(C)=O)cc1` [Compound 38], the “% inhibition over control TLR2” value in data set [5] (Concentration 75-100 µM) is listed as “++ (++ means that the % of inhibition or activation is in the range of 25-75%)”.
